Laboratory results as given in ChEMBL document CHEMBL4393667, “Discovery of [1,2,4]Triazolo[4,3- a]pyridines as Potent Inhibitors Targeting the Programmed Cell Death-1/Programmed Cell Death-Ligand 1 Interaction” (J Med Chem, 2019).

Columns and labels:
[1] = target: T1, Programmed cell death protein 1/Programmed cell death 1 ligand 1 (Homo sapiens, UniProt Q15116+Q9NZQ7); experiment: Inhibition of human PD1/PDL1 protein-protein interaction after 15 mins by HTRF assay; format: protein-complex assay
[2] = target: T1, Programmed cell death protein 1/Programmed cell death 1 ligand 1; experiment: Inhibition of human PD1/PDL1 protein-protein interaction in human PBMC-derived CD3-positive T cells co-cultured with human Hep3B cells expressing PDL1/OS-8 assessed as increase in IFNgamma secretion measured after 3 days

T1 sequence (Q15116 whole entry): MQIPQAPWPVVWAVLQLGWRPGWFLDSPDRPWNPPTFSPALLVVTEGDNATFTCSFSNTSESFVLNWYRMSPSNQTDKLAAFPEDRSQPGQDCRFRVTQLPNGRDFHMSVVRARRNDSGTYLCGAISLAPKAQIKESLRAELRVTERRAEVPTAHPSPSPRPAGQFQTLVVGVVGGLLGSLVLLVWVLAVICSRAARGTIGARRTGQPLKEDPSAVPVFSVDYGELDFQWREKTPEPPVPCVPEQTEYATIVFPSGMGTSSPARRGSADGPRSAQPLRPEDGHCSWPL
T1 sequence (Q9NZQ7 whole entry): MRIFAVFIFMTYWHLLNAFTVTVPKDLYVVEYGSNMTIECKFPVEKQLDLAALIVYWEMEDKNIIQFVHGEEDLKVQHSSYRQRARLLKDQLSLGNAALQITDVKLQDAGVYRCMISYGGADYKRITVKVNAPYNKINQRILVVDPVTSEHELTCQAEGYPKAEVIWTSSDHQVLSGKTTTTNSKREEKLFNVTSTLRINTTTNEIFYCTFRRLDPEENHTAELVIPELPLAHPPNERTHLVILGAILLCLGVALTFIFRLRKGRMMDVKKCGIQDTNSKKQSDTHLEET

Compound: COC(=O)[C@@H]1CCCCN1Cc1cc(C(=O)Nc2cccc(-c3ccccc3)c2C)c2nncn2c1
- IC50 [1]: > 10000 nM

Compound: Cc1c(NC(=O)c2cc(CN(C)CCO)cn3ccnc23)cccc1-c1ccccc1
- IC50 [1]: > 10000 nM

Compound: Cc1c(NC(=O)c2ccc(CN(C)CCO)n3cnnc23)cccc1-c1ccccc1
- IC50 [1]: > 10000 nM

Compound: CC(=O)NCCNCc1ccc(C(=O)Nc2cccc(-c3ccccc3)c2C)c2nncn12
- IC50 [1]: > 10000 nM

Compound: Cc1c(NC(=O)c2cc(CN3CCN(C)CC3)cn3cnnc23)cccc1-c1ccccc1
- IC50 [1]: 1350 nM

Compound: Cc1c(NC(=O)c2cc(CNCCS(N)(=O)=O)cn3cnnc23)cccc1-c1ccccc1
- IC50 [1]: 834 nM

Compound: Cc1c(NC(=O)c2cc(CNCCO)cn3c(C)nnc23)cccc1-c1ccccc1
- IC50 [1]: > 10000 nM

Compound: CN(Cc1cc(C(=O)Nc2cccc(-c3ccc4c(c3)OCCO4)c2C#N)c2nncn2c1)CC(O)CO (stereo unspecified)
- IC50 [1]: 486 nM

Compound: COC(=O)[C@@H](CO)NCc1cc(C(=O)Nc2cccc(-c3ccccc3)c2C)c2nncn2c1
- IC50 [1]: > 10000 nM

Compound: Cc1c(NC(=O)c2cc(CNCCS(N)(=O)=O)cn3cnnc23)cccc1-c1ccc2c(c1)OCCO2
- IC50 [1]: 3690 nM

Compound: Cc1c(NC(=O)c2cc(CN(C)CC(O)CO)cn3cnnc23)cccc1-c1ccc2c(c1)OCCO2 (stereo unspecified)
- IC50 [1]: 474 nM

Compound: N#Cc1c(NC(=O)c2cc(CNCCO)cn3cnnc23)cccc1-c1ccc2c(c1)OCCO2
- IC50 [1]: 275 nM

Compound: Cc1c(NC(=O)c2cc(CNCCNS(C)(=O)=O)cn3cnnc23)cccc1-c1ccc2c(c1)OCCO2
- IC50 [1]: 988 nM

Compound: Cc1c(NC(=O)c2cc(CN(C)CC(O)CO)cn3cnnc23)cccc1-c1ccccc1 (stereo unspecified)
- IC50 [1]: 375 nM

Compound: Cc1c(NC(=O)c2ccc(CNCCO)n3cnnc23)cccc1-c1ccccc1
- IC50 [1]: > 10000 nM

Compound: Cc1c(NC(=O)c2cc(CN3CCCC[C@H]3C(=O)O)cn3cnnc23)cccc1-c1ccccc1
- IC50 [1]: 5130 nM

Compound: Cc1c(NC(=O)c2cc(CN3CCN(C)CC3)cn3c(C)nnc23)cccc1-c1ccccc1
- IC50 [1]: > 10000 nM

Compound: CC(=O)NCCNCc1cc(C(=O)Nc2cccc(-c3ccc4c(c3)OCCO4)c2C#N)c2nncn2c1
- IC50 [1]: 367 nM

Compound: Cc1c(NC(=O)c2cc(CN(C)CCO)cn3cnnc23)cccc1-c1ccc2c(c1)OCCO2
- IC50 [1]: 238 nM

Compound: Cc1c(NC(=O)c2cc(CNCCO)cn3cnnc23)cccc1-c1ccccc1
- IC50 [1]: 733 nM

Compound: Cc1c(NC(=O)c2cc(CN(C)CCO)cn3cnnc23)cccc1-c1ccccc1
- IC50 [1]: 755 nM

Compound: Cc1c(NC(=O)c2cc(CNCCO)cn3cnnc23)cccc1-c1ccc2c(c1)OCCO2
- inhibition [2]: Dose-dependent effect

Compound: Cc1c(NC(=O)c2cc(CN[C@H]3CC[C@H](O)CC3)cn3cnnc23)cccc1-c1ccccc1
- IC50 [1]: 968 nM

Compound: CC(=O)NCCNCc1cc(C(=O)Nc2cccc(-c3ccccc3)c2C)c2nccn2c1
- IC50 [1]: > 10000 nM

Compound: Cc1c(NC(=O)c2cc(CNCC(N)=O)cn3cnnc23)cccc1-c1ccccc1
- IC50 [1]: 2940 nM

Compound: CC(=O)NCCNCc1cc(C(=O)Nc2cccc(-c3ccc4c(c3)OCCO4)c2C)c2nncn2c1
- IC50 [1]: 566 nM

Compound: COC(=O)CNCc1cc(C(=O)Nc2cccc(-c3ccccc3)c2C)c2nncn2c1
- IC50 [1]: > 10000 nM

Compound: CC(=O)NCCNCc1cc(C(=O)Nc2cccc(-c3ccccc3)c2C)c2nncn2c1
- IC50 [1]: 1490 nM

Compound: Cc1c(NC(=O)c2cc(CNCCO)cn3ccnc23)cccc1-c1ccccc1
- IC50 [1]: > 10000 nM

Compound: CS(=O)(=O)NCCNCc1cc(C(=O)Nc2cccc(-c3ccc4c(c3)OCCO4)c2C#N)c2nncn2c1
- IC50 [1]: 983 nM

Compound: Cc1c(NC(=O)c2cc(CN[C@H](CO)C(=O)O)cn3cnnc23)cccc1-c1ccccc1
- IC50 [1]: 5570 nM
